Target: T1, recombinant human PAI-1 (Homo sapiens, UniProt P05121)
T1 construct: purchased Molecular Innovations, Inc
Test: Test Example 1: human PAI-1 inhibitory activity (tPA fluorogenic substrate, pH 7.5 Tris buffer)
Assay type: biochemical
Settings: Tris buffer
Procedure: 50 mM Tris, 150 mM NaCl, 10 μg/ml BSA, 0.01% Tween80 (SIGMA-ALDRICH Corporation)

T1 sequence (P05121 24-402): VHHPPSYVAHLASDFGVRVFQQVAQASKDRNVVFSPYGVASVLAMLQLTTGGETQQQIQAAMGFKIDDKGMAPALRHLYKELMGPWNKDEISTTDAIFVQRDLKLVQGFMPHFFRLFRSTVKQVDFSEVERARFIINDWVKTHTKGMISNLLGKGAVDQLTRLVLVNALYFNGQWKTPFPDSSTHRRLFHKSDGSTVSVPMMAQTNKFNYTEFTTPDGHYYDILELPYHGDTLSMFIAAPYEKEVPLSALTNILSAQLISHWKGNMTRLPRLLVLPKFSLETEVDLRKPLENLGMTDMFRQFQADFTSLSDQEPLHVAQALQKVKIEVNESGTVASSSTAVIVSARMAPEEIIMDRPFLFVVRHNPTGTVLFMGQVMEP

Row | Inhibition Rate of PAI-1 Activity (%) (Compound Concentration 5 μM) | Inhibition Rate of PAI-1 Activity (%) (Compound Concentration 10 μM) | Inhibition Rate of PAI-1 Activity (%) (Compound Concentration 25 μM) | Structure (SMILES)
1 | 32% | 72% | 98% | CC(C)c1ccc(Oc2ccc(/C=C/C(=O)O)c(Oc3ccc(C(C)C)cc3)c2)cc1 [Compound 72]
2 | 13% | 53% | 96% | CC(C)c1ccc(Oc2ccc(/C=C\C(=O)O)c(Oc3ccc(C(C)C)cc3)c2)cc1 [Compound 74]
3 | 25% | 53% | 91% | CC(C)(C)c1ccc(COc2cc(-c3ccc(OC(F)(F)F)cc3)ccc2/C=C/C(=O)O)cc1 [Compound 75]
4 | 27% | 51% | 73% | CC(C)(C)c1ccc(COc2cc(Oc3ccc(OC(F)(F)F)cc3)ccc2/C=C/C(=O)O)cc1 [Compound 77]
5 | 39% | 84% | 90% | CC(C)(C)c1ccc(Oc2cc(-c3ccc(OC(F)(F)F)cc3)ccc2/C=C/C(=O)O)cc1 [Compound 79]
6 | 28% | 63% | 70% | COc1cc(-c2ccc(OC(F)(F)F)cc2)cc(/C=C/C(=O)O)c1OCc1ccc(C(C)(C)C)cc1 [Compound 81]
7 | 26% | 59% | 98% | COc1cc(-c2ccc(OC(F)(F)F)cc2)cc(CCC(=O)O)c1OCc1ccc(C(C)(C)C)cc1 [Compound 82]
8 | 27% | 46% | 56% | Cc1cc(-c2ccc(OC(F)(F)F)cc2)cc(/C=C/C(=O)O)c1OCc1ccc(C(C)(C)C)cc1 [Compound 83]
9 | 28% | 62% | 95% | Cc1cc(-c2ccc(OC(F)(F)F)cc2)cc(CCC(=O)O)c1OCc1ccc(C(C)(C)C)cc1 [Compound 84]
10 | 40% | 61% | 85% | CC(C)(C)c1ccc(COc2cccc(Oc3ccc(OC(F)(F)F)cc3)c2/C=C/C(=O)O)cc1 [Compound 85]
11 | 44% | 81% | 96% | CC(C)(C)c1ccc(COc2c(/C=C/C(=O)O)cccc2-c2ccc(OC(F)(F)F)cc2)cc1 [Compound 87]
12 | 46% | 87% | 95% | CC(C)(C)c1ccc(Oc2cc(Oc3ccc(OC(F)(F)F)cc3)ccc2/C=C/C(=O)O)cc1 [Compound 89]
13 | 30% | 67% | 96% | CC(C)(C)c1ccc(COc2c(Cl)cc(-c3ccc(OC(F)(F)F)cc3)cc2C=CC(=O)O)cc1 [Compound 91]
14 | 25% | 63% | 97% | CC(C)(C)c1ccc(COc2c(Cl)cc(-c3ccc(OC(F)(F)F)cc3)cc2CCC(=O)O)cc1 [Compound 92]
15 | 51% | 87% | 94% | CC(C)(C)c1ccc(Oc2cccc(-c3ccc(OC(F)(F)F)cc3)c2C=CC(=O)O)cc1 [Compound 93]
16 | 28% | 77% | 96% | CC(C)(C)c1ccc(COc2ccc(Oc3ccc(OC(F)(F)F)cc3)cc2C=CC(=O)O)cc1 [Compound 95]
17 | 30% | 40% | 53% | O=C(O)C=Cc1c(Oc2ccc(OC(F)(F)F)cc2)cccc1Oc1ccc(OC(F)(F)F)cc1 [Compound 97]
18 | 31% | 66% | 99% | CC(C)(C)c1ccc(Oc2ccc(Oc3ccc(OC(F)(F)F)cc3)cc2C=CC(=O)O)cc1 [Compound 99]
19 | 42% | 73% | >99% | O=C(O)CCc1cc(-c2ccc(OC(F)(F)F)cc2)ccc1OCCCc1ccccc1 [Compound 101]

Row | Inhibition Rate of PAI-1 Activity (%) (Compound Concentration 5 μM) | Inhibition Rate of PAI-1 Activity (%) (Compound Concentration 10 μM) | Inhibition Rate of PAI-1 Activity (%) (Compound Concentration 25 μM) | Structure (SMILES)
20 | 33% | 57% | 89% | O=C(O)CCc1cc(-c2ccc(OC(F)(F)F)cc2)ccc1OCCCOc1ccccc1 [Compound 103]
21 | 47% | 77% | 96% | O=C(O)CCc1cc(-c2ccc(OC(F)(F)F)cc2)ccc1OCCCCCc1ccccc1 [Compound 104]
22 | 48% | 85% | 97% | CC(C)(C)c1ccc(COc2ccc(-c3ccc(OC(F)(F)F)cc3)cc2COCC(=O)O)cc1 [Compound 107]
23 | 24% | 50% | 96% | CC(C)(C)c1ccc(COc2ccc(-c3ccc(OC(F)(F)F)cc3)cc2OCCCC(=O)O)cc1 [Compound 109]
24 | 37% | 51% | 83% | CC(C)(Oc1ccc(-c2ccc(OC(F)(F)F)cc2)cc1Oc1ccc(C(C)(C)C)cc1)C(=O)O [Compound 110]
25 | 55% | 88% | 94% | CC(C)(OCc1ccc(-c2ccc(OC(F)(F)F)cc2)cc1Oc1ccc(C(C)(C)C)cc1)C(=O)O [Compound 111]
26 | 64% | 87% | 95% | CCC(Oc1ccc(-c2ccc(OC(F)(F)F)cc2)cc1Oc1ccc(C(C)(C)C)cc1)C(=O)O (stereo not shown) [Compound 114]
27 | 34% | 59% | 90% | O=C(O)COc1cc(-c2ccc(OC(F)(F)F)cc2)ccc1OCCCCc1ccccc1 [Compound 115]
28 | 75% | 93% | 99% | CC(C)(C)c1ccc(Oc2cc(-c3ccc(OC(F)(F)F)cc3)ccc2OC(F)C(=O)O)cc1 (stereo not shown) [Compound 119]
29 | 59% | 87% | 98% | CC(C)(C)c1ccc(Oc2cc(-c3ccc(OC(F)(F)F)cc3)ccc2OC(F)(F)C(=O)O)cc1 [Compound 120]
30 | 29% | 63% | 99% | CC(C)(C)c1ccc(COc2ccc(-c3ccc(OC(F)(F)F)cc3)cc2OCc2nnn[nH]2)cc1 [Compound 122]
31 | 27% | 62% | – | Cc1cc(C)cc(CN(C(=O)C(=O)O)c2ccc(-c3ccc(OC(F)(F)F)cc3)cc2)c1 [Compound 123]
32 | 22% | 49% | – | O=C(O)C(=O)N(Cc1ccc(Cl)cc1)c1ccc(-c2ccc(OC(F)(F)F)cc2)cc1 [Compound 124]
33 | 15% | 31% | – | Cc1cccc(CN(C(=O)C(=O)O)c2ccc(-c3ccc(OC(F)(F)F)cc3)cc2)c1 [Compound 125]
34 | 16% | 43% | – | COc1ccc(-c2ccc(N(Cc3ccc(C(C)(C)C)cc3)C(=O)C(=O)O)cc2)cc1 [Compound 126]
35 | 21% | 43% | – | CC(C)(C)c1ccc(CN(C(=O)C(=O)O)c2ccc(-c3ccc(F)cc3)cc2)cc1 [Compound 127]
36 | 58% | 89% | – | CC(C)(C)c1ccc(N(C(=O)C(=O)O)c2ccc(-c3ccc(OC(F)(F)F)cc3)cc2)cc1 [Compound 128]
37 | – | 10% | 34% | COc1ccc(CN(C(=O)C(=O)O)c2ccc(-c3ccc(OC(F)(F)F)cc3)cc2)cc1 [Compound 131]
38 | – | 32% | 82% | CC(C)(C)c1ccc(CN(C(=O)C(=O)O)c2ccc(Oc3ccc(OC(F)(F)F)cc3)cc2)cc1 [Compound 132]

Reference: US8633245B2, “PAI-1 inhibitor” (Institute of Medicinal Molecular Design, Inc., priority 2008, dated 2014)
